Source: ChEMBL document CHEMBL5303762, “Data for DCP probe BI-8668” (2023)
Each block holds one compound with its values, some of them ahead of it.

What was measured:
[1] = biological target: T1, Muscarinic acetylcholine receptor M2 (Homo sapiens) (UniProt P08172); assay: M2(H)AGON Eurofins SafetyScreen44 (BI); details: filed as agonist, Compound concentration 10.0 uM
T1 sequence (whole entry): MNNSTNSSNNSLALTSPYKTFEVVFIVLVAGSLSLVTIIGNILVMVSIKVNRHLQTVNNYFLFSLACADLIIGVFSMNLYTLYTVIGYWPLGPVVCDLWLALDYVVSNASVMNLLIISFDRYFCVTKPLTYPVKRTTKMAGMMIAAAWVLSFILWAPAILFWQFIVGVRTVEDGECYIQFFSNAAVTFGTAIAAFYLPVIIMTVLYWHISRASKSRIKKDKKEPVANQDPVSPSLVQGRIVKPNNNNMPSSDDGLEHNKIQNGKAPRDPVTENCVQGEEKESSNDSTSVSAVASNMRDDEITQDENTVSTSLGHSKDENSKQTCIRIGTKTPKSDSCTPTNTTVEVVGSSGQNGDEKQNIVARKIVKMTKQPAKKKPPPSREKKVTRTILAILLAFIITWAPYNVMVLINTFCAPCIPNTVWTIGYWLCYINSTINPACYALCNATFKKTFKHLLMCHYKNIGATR

[2] = biological target: T2, Alpha-1A adrenergic receptor (Homo sapiens) (UniProt P35348); assay: ALPHA1A(H)ANTAG Eurofins SafetyScreen44 (BI); details: filed as antagonist, Compound concentration 10.0 uM
T2 sequence (whole entry): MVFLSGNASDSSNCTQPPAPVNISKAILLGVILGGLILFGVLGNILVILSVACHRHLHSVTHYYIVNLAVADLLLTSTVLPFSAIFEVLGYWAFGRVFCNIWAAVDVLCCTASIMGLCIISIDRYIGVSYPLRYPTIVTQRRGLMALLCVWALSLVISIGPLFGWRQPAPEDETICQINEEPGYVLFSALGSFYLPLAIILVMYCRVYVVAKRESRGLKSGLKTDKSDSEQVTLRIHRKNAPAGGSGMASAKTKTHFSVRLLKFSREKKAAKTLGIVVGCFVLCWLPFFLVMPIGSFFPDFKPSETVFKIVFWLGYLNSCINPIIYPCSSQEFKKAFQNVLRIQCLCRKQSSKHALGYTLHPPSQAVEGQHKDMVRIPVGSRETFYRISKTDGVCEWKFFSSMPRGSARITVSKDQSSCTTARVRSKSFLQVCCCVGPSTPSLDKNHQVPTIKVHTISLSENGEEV

[3] = biological target: MAO-A (amine oxidase [flavin-containing] A) (Rattus norvegicus, UniProt P21396); assay: (§1) MAO-A_ANTAG Eurofins SafetyScreen44 (BI); design: scale not given: the % may be the effect or the level left; details: compound concentration 10 uM, read-out: % Ctrl
[4] = biological target: T1, Muscarinic acetylcholine receptor M2 (Homo sapiens); assay: M2(H)ANTAG Eurofins SafetyScreen44 (BI); details: filed as antagonist, Compound concentration 10.0 uM
[5] = biological target: Muscarinic acetylcholine receptor M3 (Homo sapiens) (UniProt P20309); assay: M3(H)ANTAG Eurofins SafetyScreen44 (BI); details: filed as antagonist, Compound concentration 10.0 uM
Chain of Muscarinic acetylcholine receptor M3 (Homo sapiens) (P20309 whole entry, looked up): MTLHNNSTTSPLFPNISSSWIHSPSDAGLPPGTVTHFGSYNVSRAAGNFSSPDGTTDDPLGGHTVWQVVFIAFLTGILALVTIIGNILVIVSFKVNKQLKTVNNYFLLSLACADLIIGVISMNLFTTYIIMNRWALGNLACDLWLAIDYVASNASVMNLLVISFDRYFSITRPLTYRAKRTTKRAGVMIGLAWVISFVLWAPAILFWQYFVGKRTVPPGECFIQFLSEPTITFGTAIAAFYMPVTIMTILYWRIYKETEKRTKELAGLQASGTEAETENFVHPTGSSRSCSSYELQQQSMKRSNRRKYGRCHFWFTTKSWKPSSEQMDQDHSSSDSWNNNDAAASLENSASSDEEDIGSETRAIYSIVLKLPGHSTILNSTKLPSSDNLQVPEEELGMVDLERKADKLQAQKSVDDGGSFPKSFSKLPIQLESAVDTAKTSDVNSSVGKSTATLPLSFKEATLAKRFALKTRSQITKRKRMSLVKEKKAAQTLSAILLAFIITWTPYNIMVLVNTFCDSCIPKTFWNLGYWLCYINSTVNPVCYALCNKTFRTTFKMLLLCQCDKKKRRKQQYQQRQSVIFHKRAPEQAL

[6] = biological target: T2, Alpha-1A adrenergic receptor (Homo sapiens); assay: ALPHA1A(H)AGON Eurofins SafetyScreen44 (BI); details: filed as agonist, Compound concentration 10.0 uM
[7] = biological target: 5-hydroxytryptamine receptor 7 (Homo sapiens) (UniProt P34969); details: Compound concentration 10.0 uM
Chain of 5-hydroxytryptamine receptor 7 (Homo sapiens) (P34969 whole entry): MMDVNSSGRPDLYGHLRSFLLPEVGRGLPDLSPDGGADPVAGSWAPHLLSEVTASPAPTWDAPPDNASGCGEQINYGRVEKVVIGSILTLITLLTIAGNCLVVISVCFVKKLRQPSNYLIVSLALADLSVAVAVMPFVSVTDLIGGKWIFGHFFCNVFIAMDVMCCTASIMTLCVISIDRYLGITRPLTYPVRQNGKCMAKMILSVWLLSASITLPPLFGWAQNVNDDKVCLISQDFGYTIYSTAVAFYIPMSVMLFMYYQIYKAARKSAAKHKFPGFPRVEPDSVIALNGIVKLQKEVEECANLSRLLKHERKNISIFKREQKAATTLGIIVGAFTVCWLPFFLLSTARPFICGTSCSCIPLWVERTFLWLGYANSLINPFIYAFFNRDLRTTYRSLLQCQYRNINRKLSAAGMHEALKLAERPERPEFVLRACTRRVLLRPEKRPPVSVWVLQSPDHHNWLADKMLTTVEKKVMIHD

[8] = biological target: Mu-type opioid receptor (Homo sapiens) (UniProt P35372); details: Compound concentration 10.0 uM
Chain of Mu-type opioid receptor (Homo sapiens) (P35372 whole entry): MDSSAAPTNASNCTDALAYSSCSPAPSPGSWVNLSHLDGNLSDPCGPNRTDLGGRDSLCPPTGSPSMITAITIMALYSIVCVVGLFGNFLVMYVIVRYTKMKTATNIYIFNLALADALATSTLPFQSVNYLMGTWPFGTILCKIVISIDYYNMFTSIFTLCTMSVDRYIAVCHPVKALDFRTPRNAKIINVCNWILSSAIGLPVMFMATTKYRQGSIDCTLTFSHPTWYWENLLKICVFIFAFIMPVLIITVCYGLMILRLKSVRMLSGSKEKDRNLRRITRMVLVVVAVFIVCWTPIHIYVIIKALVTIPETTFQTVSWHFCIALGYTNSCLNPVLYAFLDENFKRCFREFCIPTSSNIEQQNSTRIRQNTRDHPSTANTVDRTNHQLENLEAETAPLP

Histamine H3 receptor = Histamine H3 receptor (Homo sapiens, UniProt Q9Y5N1); details: Compound concentration 10.0 uM
Chain of Histamine H3 receptor (Q9Y5N1 whole entry): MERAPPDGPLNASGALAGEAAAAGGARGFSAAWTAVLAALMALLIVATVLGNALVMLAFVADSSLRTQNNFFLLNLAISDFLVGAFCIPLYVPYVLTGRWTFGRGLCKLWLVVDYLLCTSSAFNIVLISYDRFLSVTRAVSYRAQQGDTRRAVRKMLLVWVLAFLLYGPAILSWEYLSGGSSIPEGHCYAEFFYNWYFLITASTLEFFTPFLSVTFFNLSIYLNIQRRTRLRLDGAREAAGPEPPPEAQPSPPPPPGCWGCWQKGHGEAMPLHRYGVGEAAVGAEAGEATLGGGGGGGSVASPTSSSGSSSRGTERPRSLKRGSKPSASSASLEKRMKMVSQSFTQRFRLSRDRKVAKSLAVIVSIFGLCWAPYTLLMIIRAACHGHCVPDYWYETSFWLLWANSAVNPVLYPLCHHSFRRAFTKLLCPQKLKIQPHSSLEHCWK

[9] = biological target: T3, Alpha-2A adrenergic receptor (Homo sapiens) (UniProt P08913); details: Compound concentration 10.0 uM
T3 sequence (whole entry): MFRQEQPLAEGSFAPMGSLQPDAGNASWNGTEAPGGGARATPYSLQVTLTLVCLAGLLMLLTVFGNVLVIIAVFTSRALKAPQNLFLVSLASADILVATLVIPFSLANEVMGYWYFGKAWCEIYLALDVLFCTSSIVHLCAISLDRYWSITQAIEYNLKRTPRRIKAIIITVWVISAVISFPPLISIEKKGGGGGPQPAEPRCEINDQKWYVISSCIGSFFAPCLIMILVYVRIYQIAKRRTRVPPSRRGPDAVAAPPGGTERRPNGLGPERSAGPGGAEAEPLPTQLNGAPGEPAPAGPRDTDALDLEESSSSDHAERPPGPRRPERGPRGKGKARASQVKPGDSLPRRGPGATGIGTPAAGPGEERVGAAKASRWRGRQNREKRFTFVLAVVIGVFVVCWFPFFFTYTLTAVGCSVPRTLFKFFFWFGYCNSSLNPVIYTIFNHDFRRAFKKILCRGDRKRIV

[10] = biological target: Alpha-2B adrenergic receptor (Homo sapiens) (UniProt P18089); details: Compound concentration 10.0 uM
Chain of Alpha-2B adrenergic receptor (Homo sapiens) (P18089 whole entry): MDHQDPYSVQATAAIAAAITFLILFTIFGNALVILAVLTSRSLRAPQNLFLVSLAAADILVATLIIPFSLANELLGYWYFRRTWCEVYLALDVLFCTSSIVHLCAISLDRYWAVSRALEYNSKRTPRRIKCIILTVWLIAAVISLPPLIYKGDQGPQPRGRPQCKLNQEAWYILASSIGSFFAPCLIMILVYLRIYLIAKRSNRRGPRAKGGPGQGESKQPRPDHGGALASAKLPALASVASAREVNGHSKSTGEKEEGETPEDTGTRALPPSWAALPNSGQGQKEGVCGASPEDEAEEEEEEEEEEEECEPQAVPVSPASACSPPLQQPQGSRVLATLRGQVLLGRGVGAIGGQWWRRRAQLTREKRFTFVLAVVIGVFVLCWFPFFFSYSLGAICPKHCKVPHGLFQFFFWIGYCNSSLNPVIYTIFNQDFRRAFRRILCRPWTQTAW

[11] = biological target: Beta-1 adrenergic receptor (Homo sapiens) (UniProt P08588); details: Compound concentration 10.0 uM
Chain of Beta-1 adrenergic receptor (Homo sapiens) (P08588 whole entry, looked up): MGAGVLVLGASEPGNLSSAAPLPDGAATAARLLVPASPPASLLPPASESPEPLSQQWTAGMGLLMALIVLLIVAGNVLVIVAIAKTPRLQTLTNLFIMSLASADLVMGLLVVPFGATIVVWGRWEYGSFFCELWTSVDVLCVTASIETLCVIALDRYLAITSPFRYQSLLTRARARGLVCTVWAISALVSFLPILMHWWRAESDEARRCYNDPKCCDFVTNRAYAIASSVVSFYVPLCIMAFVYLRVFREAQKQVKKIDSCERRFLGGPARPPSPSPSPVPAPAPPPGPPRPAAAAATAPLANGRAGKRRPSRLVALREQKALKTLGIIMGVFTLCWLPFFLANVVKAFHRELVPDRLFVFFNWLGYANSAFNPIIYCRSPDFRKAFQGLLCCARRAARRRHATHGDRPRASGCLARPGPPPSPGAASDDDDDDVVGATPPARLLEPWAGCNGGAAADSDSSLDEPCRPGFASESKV

[12] = biological target: Beta-2 adrenergic receptor (Homo sapiens) (UniProt P07550); details: Compound concentration 10.0 uM
Chain of Beta-2 adrenergic receptor (Homo sapiens) (P07550 whole entry, looked up): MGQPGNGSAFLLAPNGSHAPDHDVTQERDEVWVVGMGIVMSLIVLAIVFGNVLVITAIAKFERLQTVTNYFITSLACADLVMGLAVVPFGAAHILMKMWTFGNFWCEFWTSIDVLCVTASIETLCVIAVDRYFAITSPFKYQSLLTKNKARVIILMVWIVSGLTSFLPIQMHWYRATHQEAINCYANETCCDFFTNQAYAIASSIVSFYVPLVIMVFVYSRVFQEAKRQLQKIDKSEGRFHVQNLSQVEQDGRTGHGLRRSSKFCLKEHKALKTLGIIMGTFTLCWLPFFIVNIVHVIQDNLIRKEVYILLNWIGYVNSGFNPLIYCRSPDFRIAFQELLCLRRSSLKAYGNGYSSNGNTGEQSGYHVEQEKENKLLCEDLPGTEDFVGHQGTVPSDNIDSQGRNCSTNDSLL

[13] = biological target: T1, Muscarinic acetylcholine receptor M2 (Homo sapiens); details: Compound concentration 10.0 uM
[14] = biological target: GABA-A receptor; anion channel (Rattus norvegicus) (UniProt O09028+P15431+P18506+P18508+P19969+P20236+P23574+P23576+P28471+P28473+P30191+P62813+P63079+P63138+Q91ZM7+Q9ES14); details: Compound concentration 10.0 uM
Rattus norvegicus = species on record: Rattus norvegicus; details: Compound concentration 10.0 uM
[15] = biological target: Alpha-1D adrenergic receptor (Homo sapiens) (UniProt P25100); details: Compound concentration 10.0 uM
Chain of Alpha-1D adrenergic receptor (Homo sapiens) (P25100 whole entry): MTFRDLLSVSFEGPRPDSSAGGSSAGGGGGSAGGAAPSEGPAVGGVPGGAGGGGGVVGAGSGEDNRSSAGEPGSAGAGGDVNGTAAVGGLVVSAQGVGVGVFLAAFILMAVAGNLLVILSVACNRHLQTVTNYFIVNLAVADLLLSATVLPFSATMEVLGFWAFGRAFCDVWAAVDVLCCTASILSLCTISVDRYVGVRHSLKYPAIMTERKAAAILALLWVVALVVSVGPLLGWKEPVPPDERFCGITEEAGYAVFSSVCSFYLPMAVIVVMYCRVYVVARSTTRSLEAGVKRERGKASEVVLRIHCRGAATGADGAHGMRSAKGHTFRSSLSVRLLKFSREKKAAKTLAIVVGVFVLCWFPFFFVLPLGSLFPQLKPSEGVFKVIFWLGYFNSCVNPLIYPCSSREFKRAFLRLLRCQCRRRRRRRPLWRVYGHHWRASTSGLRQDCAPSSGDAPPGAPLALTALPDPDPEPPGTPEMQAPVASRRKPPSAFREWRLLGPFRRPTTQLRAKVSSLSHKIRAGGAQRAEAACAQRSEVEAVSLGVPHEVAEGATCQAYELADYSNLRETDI

[16] = biological target: Sigma non-opioid intracellular receptor 1 (Homo sapiens) (UniProt Q99720); details: Compound concentration 10.0 uM
Chain of Sigma non-opioid intracellular receptor 1 (Homo sapiens) (Q99720 whole entry): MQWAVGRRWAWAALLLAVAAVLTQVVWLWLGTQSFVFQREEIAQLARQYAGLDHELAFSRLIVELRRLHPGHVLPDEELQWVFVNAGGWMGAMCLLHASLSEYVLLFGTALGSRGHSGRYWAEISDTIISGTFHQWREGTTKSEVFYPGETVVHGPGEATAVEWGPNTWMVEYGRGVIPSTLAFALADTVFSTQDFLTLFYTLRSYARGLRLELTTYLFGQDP

[17] = biological target: MAO-A (amine oxidase [flavin-containing] A) (Homo sapiens, UniProt P21397); assay: as §1; design: scale not given: the % may be the effect or the level left; details: compound concentration 10 uM, read-out: % Ctrl
[18] = biological target: Cannabinoid receptor 1 (Homo sapiens) (UniProt P21554); assay: CB1(HU)_AGON Eurofins SafetyScreen44 (BI); details: filed as agonist, Compound concentration 10.0 uM
Chain of Cannabinoid receptor 1 (Homo sapiens) (P21554 whole entry): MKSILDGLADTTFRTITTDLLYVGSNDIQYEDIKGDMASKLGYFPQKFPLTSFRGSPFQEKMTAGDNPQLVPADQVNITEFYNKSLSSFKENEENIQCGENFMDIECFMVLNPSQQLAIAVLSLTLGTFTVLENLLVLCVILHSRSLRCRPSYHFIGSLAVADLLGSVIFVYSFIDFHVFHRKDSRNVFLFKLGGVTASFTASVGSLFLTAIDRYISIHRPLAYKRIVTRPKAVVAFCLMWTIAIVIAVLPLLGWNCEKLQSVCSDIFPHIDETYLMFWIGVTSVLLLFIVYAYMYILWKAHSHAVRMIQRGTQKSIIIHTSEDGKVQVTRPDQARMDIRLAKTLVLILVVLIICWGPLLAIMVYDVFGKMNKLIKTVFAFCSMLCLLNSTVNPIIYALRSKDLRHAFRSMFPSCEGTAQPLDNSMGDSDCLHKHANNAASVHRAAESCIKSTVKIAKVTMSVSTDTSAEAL

[19] = biological target: Prostaglandin G/H synthase 1 (Homo sapiens) (UniProt P23219); assay: COX-1 Eurofins SafetyScreen44 (BI); details: Compound concentration 10.0 uM

inhibition [7]: 4.76%
inhibition [8]: 11%
inhibition (Histamine H3 receptor): 85.4%
inhibition [9]: 0.56%
inhibition [10]: 0.45%
inhibition [11]: 4.25%
inhibition [12]: -5.7%
inhibition [13]: 44.6%
inhibition [14]: 22.4%
inhibition (Rattus norvegicus): -1.51%
inhibition [15]: 1.74%
inhibition [16]: 20%
Structure (SMILES): CCn1c(CNC(=O)c2nc(Cl)cnc2N)[n+](CC)c2ccc(C(=O)N(C)CCN(C)C)cc21
residual activity [1]: 85.2%
residual activity [2]: 89%
activity at 10 µM [3]: 89% (not active)
residual activity [4]: 91%
residual activity [5]: 96%
residual activity [6]: 99.6%

Structure (SMILES): CCn1c(CNC(=O)c2ncc(C)nc2N)[n+](CC)c2ccc(C(=O)N(C)CN(C)C)cc21
activity at 10 µM [17]: 95% (not active)
residual activity [18]: 111%
residual activity [19]: 84%
